Reference: US11952365B2, “Anti-viral compounds” (Aligos Therapeutics, Inc., priority 2020, dated 2024)
Where two headings read alike, the source gives them in different places.

Legend:
[1] = system: SARS-CoV-2-GHB-03021/2020; assay: SARS-CoV-2 Infection Model in Huh7 Cells; type: cell-based; settings: Severe acute respiratory syndrome coronavirus 2, Huh-7, 96 h, SARS-CoV-2, day 4 p.i., MTS
HRV3C = HRV3C (Human rhinovirus 14, UniProt P03303); assay: HRV3C protease assay (duplex, SAMDI-MS); type: biochemical, HRV; settings: 30 mins preincubation
Summary of the method: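 Duplex format with 3CLpro; 30 min enzyme–compound preincubation, 30 min reaction with two peptide substrates, ambient temp. Stop: 0.5% formic acid, neutralized with 1% NaHCO3 (finals). Readout SAMDI-MS, product AUC over internal standard AUC; four-parameter IC50.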

[2] = system: human beta-coronavirus OC43; assay: microbe, parasite or virus in culture; type: cell-based; settings: Betacoronavirus 1, OC43, HeLa, 144 h
[3] = Cytotoxicity plates without OC43 virus (cell-titer-glo); type: cell-based, human; settings: human; HeLa cells without OC43 virus, class symbols
Summary of the method: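 HeLa cells seeded overnight, then treated with serially diluted compounds in 2% FBS EMEM, uninfected, in parallel with the OC43 antiviral plates. Incubated 6 days at 33 °C; viability read by CellTiter-Glo luminescence.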

[4] = system: SARS-CoV-2-GHB-03021/2020; assay: microbe, parasite or virus in culture; type: cell-based; settings: Severe acute respiratory syndrome coronavirus 2, Vero C1008, 96 h; read-out: VeroE6 + CP (EC50)
in vitro [5] = settings: human
human cathepsin L = target: T1, human cathepsin L (Homo sapiens, UniProt P07711); assay: cathepsin L assay; type: biochemical; settings: 10 pM human cathepsin L, Z-FR-AMC 2 μM, class symbols
T1 construct: purchased R&D Systems
Summary of the method: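 Human cathepsin L at 10 pM was preincubated 30 min with compound, then reaction started with Z-FR-AMC (2 μM final). Fluorescence (355/460 nm) read every 2 min for 30 min; IC50 from four-parameter curve fit.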

3CLpro = 3CLpro (Severe acute respiratory syndrome coronavirus 2, UniProt P0DTD1); assay: SARS-CoV-2 3CLpro protease assay (duplex, SAMDI-MS); type: biochemical; design: For the duplex assay, 3CLpro and HRV3C was added; settings: 30 mins preincubation, class symbols
in vitro [6] = settings: African green monkey, VeroE6 + CP (CC50), Vero E6-eGFP cells with CP-100356, absence of virus, MTS
[7] = HRV3C, bound, read-out: HRV IC50
[8] = OC43 in HeLa cells, 6 days at 33° C., class symbols, read-out: EC50
[9] = 3CLpro, read-out: SARS-Cov-2 IC50
[10] = HRV3C, class symbols, read-out: HRV IC50

SMILES: CC(C)(C)C(=O)OCC(=O)[C@H](C[C@@H]1CCNC1=O)NC(=O)[C@@H]1[C@H]2CCC[C@H]2CN1C(=O)c1cc2c(Cl)cc(Cl)cc2[nH]1 [Compound 132, (3S)-3-{[(1S,3aR,6aS)-2-(4,6-dichloro-1H-indole-2-carbonyl)-hexahydro-1H-cyclopenta[c]pyrrol-1-yl]formamido}-2-oxo-4-[(3S)-2-oxopyrrolidin-3-yl]butyl 2,2-dimethylpropanoate]
- EC50 ([1]; class symbols): < 1 µM
- IC50 (HRV3C; [7]): > 10 µM
- EC50 [2, 8]: < 0.1 µM
- CC50 at 6 days [3]: 1 to 10 µM
- EC50 [4]: < 1 µM
- CC50 (in vitro [5]): > 10 µM
- IC50 (human cathepsin L): ≥ 10 µM
- IC50 (3CLpro; [9]): 0.2 to 2 µM
- CC50 (in vitro [6]; class symbols): > 10 µM

SMILES: O=C1NCC[C@H]1C[C@H](NC(=O)[C@@H]1[C@H]2CCC[C@H]2CN1C(=O)c1cc2c(OCc3ccccc3)cccc2[nH]1)C(=O)CO [Compound 133, (1S,3aR,6aS)-2-[4-(benzyloxy)-1H-indole-2-carbonyl]-N-[(2S)-4-hydroxy-3-oxo-1-[(3S)-2-oxopyrrolidin-3-yl]butan-2-yl]-hexahydro-1H-cyclopenta[c]pyrrole-1-carboxamide]
- EC50 ([1]; class symbols): < 1 µM
- IC50 (HRV3C; [7]): > 10 µM
- EC50 [2, 8]: < 0.1 µM
- CC50 at 6 days [3]: > 10 µM
- EC50 [4]: < 1 µM
- CC50 (in vitro [5]): > 50 µM
- IC50 (human cathepsin L): ≥ 10 µM
- IC50 (3CLpro; [9]): < 0.02 µM
- CC50 (in vitro [6]; numeric bounds): > 50 µM

SMILES: COc1cccc2[nH]c(C(=O)N3C[C@@H]4CCC[C@@H]4[C@H]3C(=O)N[C@@H](C[C@@H]3CCNC3=O)C(=O)C(=O)NCCOc3ccccc3)cc12 [Compound 134]
- EC50 ([1]; class symbols): 1 to 10 µM
- IC50 (HRV3C; [10]): 2 to 20 µM
- EC50 [2, 8]: 0.1 to 1 µM
- CC50 at 6 days [3]: > 10 µM
- EC50 [4]: 1 to 10 µM
- CC50 (in vitro [5]): > 50 µM
- IC50 (human cathepsin L): ≥ 10 µM
- IC50 (3CLpro; [9]): < 0.02 µM
- CC50 (in vitro [6]; numeric bounds): > 50 µM

SMILES: O=C1NCC[C@H]1C[C@H](NC(=O)[C@@H]1[C@H]2[C@H]3CC[C@H](C3)[C@H]2CN1C(=O)c1cc2c(Cl)cc(Cl)cc2[nH]1)C(=O)CO [Compound 135, (1S,3aR,4R,7S,7aS)-2-(4,6-dichloro-1H-indole-2-carbonyl)-N—((S)-4-hydroxy-3-oxo-1-((S)-2-oxopyrrolidin-3-yl)butan-2-yl)octahydro-1H-4,7-methanoisoindole-1-carboxamide]
- EC50 ([1]; class symbols): < 1 µM
- IC50 (HRV3C; HRV IC50, HRV3C, class symbols): 2 to 20 µM
- EC50 [2, 8]: 0.1 to 1 µM
- CC50 at 6 days [3]: > 10 µM
- EC50 [4]: < 1 µM
- CC50 (in vitro [5]): > 10 µM
- IC50 (human cathepsin L): ≥ 10 µM
- IC50 (3CLpro; [9]): 0.02 to 0.2 µM
- CC50 (in vitro [6]; class symbols): > 10 µM

SMILES: O=C1NCC[C@H]1C[C@H](NC(=O)[C@@H]1[C@@H]2[C@H](CN1C(=O)c1cc3c(Cl)cc(Cl)cc3[nH]1)[C@@H]1C=C[C@H]2C1)C(=O)CO [Compound 136, (1R,2S,3S,6R,7S)-4-(4,6-dichloro-1H-indole-2-carbonyl)-N-[(2S)-4-hydroxy-3-oxo-1-[(3S)-2-oxopyrrolidin-3-yl]butan-2-yl]-4-azatricyclo[5.2.1.0^{2,6}]dec-8-ene-3-carboxamide]
- EC50 ([1]; class symbols): < 1 µM
- IC50 (HRV3C; [10]): 2 to 20 µM
- EC50 [2, 8]: < 0.1 µM
- CC50 at 6 days [3]: > 10 µM
- EC50 [4]: < 1 µM
- CC50 (in vitro [5]): > 50 µM
- IC50 (human cathepsin L): ≥ 10 µM
- IC50 (3CLpro; [9]): < 0.02 µM
- CC50 (in vitro [6]; numeric bounds): > 50 µM

SMILES: O=C1NCC[C@H]1C[C@H](NC(=O)[C@@H]1[C@H]2CCC[C@H]2CN1C(=O)c1cc2c(Cl)ccc(Oc3ccccc3)c2[nH]1)C(=O)CO [Compound 137, (1S,3aR,6aS)-2-(4-chloro-7-phenoxy-1H-indole-2-carbonyl)-N-[(2S)-4-hydroxy-3-oxo-1-[(3S)-2-oxopyrrolidin-3-yl]butan-2-yl]-hexahydro-1H-cyclopenta[c]pyrrole-1-carboxamide]
- EC50 ([1]; class symbols): < 1 µM
- IC50 (HRV3C; HRV IC50, HRV3C, bound): > 10 µM
- EC50 [2, 8]: < 0.1 µM
- CC50 at 6 days [3]: > 10 µM
- EC50 [4]: 1 to 10 µM
- CC50 (in vitro [5]): > 10 µM
- IC50 (human cathepsin L): ≥ 10 µM
- IC50 (3CLpro; SARS-Cov-2 IC50, 3CLpro): 0.02 to 0.2 µM
- CC50 (in vitro [6]; numeric bounds): > 50 µM

SMILES: O=C1NCC[C@H]1C[C@H](NC(=O)[C@@H]1[C@H]2CCC[C@H]2CN1C(=O)c1cc2c(OC3CC3)cc(Cl)cc2[nH]1)C(=O)CO [Compound 138, (1S,3aR,6aS)-2-(6-chloro-4-cyclopropoxy-1H-indole-2-carbonyl)-N-[(2S)-4-hydroxy-3-oxo-1-[(3S)-2-oxopyrrolidin-3-yl]butan-2-yl]-hexahydro-1H-cyclopenta[c]pyrrole-1-carboxamide]
- EC50 ([1]; class symbols): < 1 µM
- IC50 (HRV3C; [10]): 2 to 20 µM
- EC50 [2, 8]: < 0.1 µM
- CC50 at 6 days [3]: > 10 µM
- EC50 [4]: 1 to 10 µM
- CC50 (in vitro [5]): > 50 µM
- IC50 (human cathepsin L): ≥ 10 µM
- IC50 (3CLpro; [9]): < 0.02 µM
- CC50 (in vitro [6]; numeric bounds): > 50 µM

SMILES: O=C1NCC[C@H]1C[C@H](NC(=O)[C@@H]1[C@H]2CCC[C@H]2CN1C(=O)c1nc2c(Cl)ccc(Cl)c2[nH]1)C(=O)CO [Compound 139, (1S,3aR,6aS)-2-(4,7-dichloro-1H-1,3-benzodiazole-2-carbonyl)-N-[(2S)-4-hydroxy-3-oxo-1-[(3S)-2-oxopyrrolidin-3-yl]butan-2-yl]-hexahydro-1H-cyclopenta[c]pyrrole-1-carboxamide]
- EC50 ([1]; class symbols): < 1 µM
- IC50 (HRV3C; HRV IC50, HRV3C, bound): > 10 µM
- EC50 [2]: 0.1 to 1 µM
- CC50 at 6 days [3]: > 10 µM
- EC50 [4]: < 1 µM
- CC50 (in vitro [5]): > 50 µM
- IC50 (human cathepsin L): ≥ 10 µM
- IC50 (3CLpro; [9]): < 0.02 µM
- CC50 (in vitro [6]; numeric bounds): > 50 µM

SMILES: O=C(NC1CC1)C(=O)[C@H](C[C@@H]1CCNC1=O)NC(=O)[C@@H]1CC2(CCN1C(=O)c1cc3ccccc3[nH]1)CC2 [Compound 140, (S)—N—((S)-4-(cyclopropylamino)-3,4-dioxo-1-((S)-2-oxopyrrolidin-3-yl)butan-2-yl)-6-(1H-indole-2-carbonyl)-6-azaspiro[2.5] octane-5-carboxamide]
- EC50 ([1]; class symbols): 1 to 10 µM
- IC50 (HRV3C; HRV IC50, HRV3C, class symbols): 2 to 20 µM
- EC50 [2]: 0.1 to 1 µM
- CC50 at 6 days [3]: > 10 µM
- EC50 [4]: 1 to 10 µM
- CC50 (in vitro [5]): > 10 µM
- IC50 (human cathepsin L): ≥ 10 µM
- IC50 (3CLpro; [9]): 0.02 to 0.2 µM
- CC50 (in vitro [6]; numeric bounds): > 50 µM

SMILES: O=C(NC1CC1)C(=O)[C@H](C[C@@H]1CCNC1=O)NC(=O)[C@@H]1CC2(CCN1C(=O)c1cc3c(Cl)cc(Cl)cc3[nH]1)CC2 [Compound 141]
- EC50 ([1]; numeric bounds): > 50 µM
- IC50 (HRV3C; [10]): 2 to 20 µM
- EC50 [2, 8]: 0.1 to 1 µM
- CC50 at 6 days [3]: > 10 µM
- EC50 [4]: > 50 µM
- CC50 (in vitro [5]): > 10 µM
- IC50 (human cathepsin L): 0.1 to 1 µM
- IC50 (3CLpro; [9]): 0.02 to 0.2 µM
- CC50 (in vitro [6]; numeric bounds): > 50 µM

SMILES: COc1cccc2[nH]c(C(=O)N3C[C@@H]4CCC[C@@H]4[C@H]3C(=O)N[C@H](C=O)CC3CCNS3(=O)=O)cc12 (stereo partly drawn) [Compound 142, (1S,3aR,6aS)—N-((2S)-1-(1,1-dioxidoisothiazolidin-5-yl)-3-oxopropan-2-yl)-2-(4-methoxy-1H-indole-2-carbonyl)octahydrocyclopenta[c]pyrrole-1-carboxamide]
- EC50 ([1]; numeric bounds): > 10 µM
- IC50 (HRV3C; HRV IC50, HRV3C, bound): > 10 µM
- EC50 ([2]; OC43 in HeLa cells, 6 days at 33° C., bound, read-out: EC50): > 10 µM
- CC50 at 6 days [3]: > 10 µM
- EC50 [4]: > 50 µM
- CC50 (in vitro [5]): > 10 µM
- IC50 (human cathepsin L): ≥ 10 µM
- IC50 (3CLpro; [9]): 0.2 to 2 µM
- CC50 (in vitro [6]; numeric bounds): > 50 µM

SMILES: O=C1NCC[C@H]1C[C@H](NC(=O)[C@@H]1[C@H]2CCC[C@H]2CN1C(=O)c1cc2c(Cl)c(F)cc(F)c2[nH]1)C(=O)CO [Compound 143, (1S,3aR,6aS)-2-(4-chloro-5,7-difluoro-1H-indole-2-carbonyl)-N-[(2S)-4-hydroxy-3-oxo-1-[(3S)-2-oxopyrrolidin-3-yl]butan-2-yl]-hexahydro-1H-cyclopenta[c]pyrrole-1-carboxamide]
- EC50 ([1]; class symbols): < 1 µM
- IC50 (HRV3C; HRV IC50, HRV3C, bound): > 10 µM
- EC50 [2]: 0.1 to 1 µM
- CC50 at 6 days [3]: > 10 µM
- EC50 [4]: < 1 µM
- CC50 (in vitro [5]): > 10 µM
- IC50 (human cathepsin L): ≥ 10 µM
- IC50 (3CLpro; [9]): 0.02 to 0.2 µM
- CC50 (in vitro [6]; numeric bounds): > 50 µM

SMILES: O=C1NCC[C@H]1C[C@H](NC(=O)[C@@H]1[C@H]2CCC[C@H]2CN1C(=O)c1ccc(-c2ccccc2)[nH]1)C(=O)CO [Compound 144, (1S,3aR,6aS)—N-[(2S)-4-hydroxy-3-oxo-1-[(3S)-2-oxopyrrolidin-3-yl]butan-2-yl]-2-(5-phenyl-1H-pyrrole-2-carbonyl)-hexahydro-1H-cyclopenta[c]pyrrole-1-carboxamide]
- EC50 ([1]; class symbols): 1 to 10 µM
- IC50 (HRV3C; [10]): 2 to 20 µM
- EC50 [2, 8]: 0.1 to 1 µM
- CC50 at 6 days [3]: > 10 µM
- EC50 [4]: < 1 µM
- CC50 (in vitro [5]): > 10 µM
- IC50 (human cathepsin L): ≥ 10 µM
- IC50 (3CLpro; [9]): 0.02 to 0.2 µM
- CC50 (in vitro [6]; numeric bounds): > 50 µM
